Test results reported in US10507207B2, “Non-nucleosidic inhibitors of reverse transcriptase as antagonists of cell proliferation and inducers of cell differentiation” (ISTITUTO SUPERIORE DI SANITA, priority 2001, dated 2019).

Experiments:
endogenous RT activity = experiment: PCR-based functional RT activity assay (MS2 RNA) with F9 lysate; format: biochemical, murine; details: cell lysate pre-incubated with 100 μM
Description: FIG. 1: Reverse transcriptase in murine and human cell lines. FIG. 1A. […] Lanes M, DNA molecular weight markers; lane 23, positive control reaction with commercial Rt. FIG. 1B. Western analysis of RT proteins (upper panels) and α-tubulin (lower panels) in WCE and nuclei. WCE were from: F9 (lane 1), NIH/3T3 (lane 2), MCF7 (lane 3), MDA-231 (lane 4), NB4 (lane 5), HL60 (lane 6) and ML2 blasts (lane 7). Nuclear extracts were from: F9 (lane 1), MCF7 (lane 2), MDA-231 (lane 3), NIH 3T3 (lane 4), HL60 (lane 5) and NB4 (lane 6).
The RT enzymatic activity, which is the target of the inhibitors described herein, has been detected in all cell lines, of both murine and human origin, that have been tested in this work using a PCR-based assay. […] The presence of RT enzyme in tumor cells is further confirmed by Western blot analysis.

early mouse embryos = experiment: Early mouse embryo cultures from in vitro fertilization (IVF) assays; details: added to cultures of IVF embryos; preliminary studies
[1] = test system: murine and human cell lines; experiment: Cell proliferation by cell counting, all cell lines; format: cell-based; details: 350 μM nevirapine vs DMSO control
Protocol: Cells were cultured with (dashed line) and without (DMSO, solid line) nevirapine. The proliferation rate is expressed as the ratio of counted cells at the indicated times relative to the initial number of seeded cells, taken as 1. Points represent the mean value and bars the standard deviation from at least three independent assays for all cell types.
Samples were withdrawn at specific times and cells were counted in nevirapine-exposed and control (DMSO-exposed) cultures. […] Saos-2 osteosarcoma cells were the most slowly responsive type, and only after 5 days of exposure did the growth rate begin to decrease compared to control cultures.

NIH/3T3 = experiment: FACS cell cycle analysis; format: cell-based, murine; details: after 72 h of nevirapine treatment
Description: (§1) FIG. 3A. Cell cycle analysis in control and nevirapine-exposed cells. […] In the U343 glioma cell line, the cell cycle was separately analysed in the diploid cell fraction (representing about ⅔ of all cells) and in the remaining fraction (about ⅓) which develops aneuploidy. FIG. 3B. […] The filter was reprobed with anti-actin antibody to control equal loading (lower panel).

HT-29 = experiment: FACS cell cycle analysis; format: cell-based, human; details: after 72 h of nevirapine treatment
Description: as §1

MCF-7 = experiment: FACS cell cycle analysis; format: cell-based, human; details: after 72 h of nevirapine treatment
Description: as §1

U343 Mg = experiment: FACS cell cycle analysis; format: cell-based, human; details: after 72 h of nevirapine treatment
Description: as §1

cyclin D1 in NIH/3T3 = experiment: Western immunoblotting of cyclin D1; format: cell-based, murine; details: 72 h nevirapine vs non-exposed controls
Description: as §1

cyclin D1 in HT-29 = experiment: Western immunoblotting of cyclin D1; format: cell-based, human; details: 72 h nevirapine vs non-exposed controls
Description: as §1

cyclin D1 in MCF-7 = experiment: Western immunoblotting of cyclin D1; format: cell-based, human; details: 72 h nevirapine vs non-exposed controls
Description: as §1

[2] = test system: cyclin D1 in U343 Mg glioma; experiment: Western immunoblotting of cyclin D1; format: cell-based, human; details: 72 h nevirapine vs non-exposed controls, data not shown
Description: as §1

[3] = test system: C2C7 myogenic satellite cells; experiment: Differentiation of C2C7 myogenic cells (myotube scoring, MHC immunofluorescence); format: cell-based, murine; details: nevirapine pre-treatment, differentiation medium 48 h, anti-MHC IF
Description: FIG. 4C, 60× magnification of myotubes in A. FIG. 4D, 60× magnification of myotubes in B. FIG. 4E, 60× magnification of MHC-positive myoblasts in the field in B.
Murine C2C7 myogenic satellite cells, which proliferate as mononucleated myoblasts can be induced to differentiate upon growth factor withdrawal and form multinucleated myotubes that express muscle-specific genes. […] By light-field microscopy scoring (n=300 cells from randomly selected fields), the ratio between multinucleated myotubes (i.e., cells with more than three nuclei) and mono/binucleated cells was about 1:1 in nevirapine-treated compared to 1:2 in untreated samples. Cells monolayers were further analyzed by immunofluorescence (IF) using a polyclonal antibody to myosin heavy chain (MHC), a late marker of muscle differentiation.

NB4 cells [4] = experiment: Morphological differentiation, Wright-Giemsa staining; format: cell-based, human; details: five days of nevirapine treatment (400 μM)
HL60 cells [5] = experiment: Cytofluorimetric analysis of cell surface markers; format: cell-based, human; details: HL60, NEV 450 μM, 4 days
Description: (§2) The induction of CD11b is associated with granulocytic differentiation, CD14 is considered a monocytic specific antigen and CD15 is a myelomonocytic antigen. Simultaneous induction of CD14 and CD11b relates to monocytic differentiation. […] In nevirapine-treated NB4 and HL60 cells, a strong induction of expression of CD15, and, to a lesser degree, CD11b and CD14 markers was detected.

NB4 cells [6] = experiment: Cytofluorimetric analysis of cell surface markers; format: cell-based, human; details: NB4, NEV 450 μM, 4 days
Description: as §2

AML#1 = experiment: Cytofluorimetric analysis of cell surface markers; format: cell-based, human; details: AML#1, NEV 450 μM, 4 days
NB4 cells [7] = experiment: Growth, viable cell count; format: cell-based, human; details: NB4, Nev 350 μM, 4 days
NB4 cells [8] = experiment: NBT dye reduction assay; format: cell-based, human; details: NB4, Nev 350 μM, 4 days
HL60 cells [9] = experiment: NBT dye reduction assay; format: cell-based, human; details: HL60, Nev 350 μM, 4 days
Kasumi-1 cells = experiment: NBT dye reduction assay; format: cell-based, human; details: Kasumi-1, Nev 350 μM, 4 days
AML #1 = experiment: NBT dye reduction assay; format: cell-based, human; details: AML #1, Nev 350 μM, 4 days
AML #2 = experiment: NBT dye reduction assay; format: cell-based, human; details: AML #2, Nev 350 μM, 4 days
ascite tumor = experiment: BALB/C mice inoculated with ascite tumor; format: in vivo; details: nevirapine 1 mg/mouse/day intraperitoneally for seven days from day of inoculation; controls 5/5 tumor
Protocol: Procedure: 10 BALB/C mice were inoculated intraperitoneally (twice) with ascite tumor cells by injecting 0.2 ml of ascite withdrawn from an animal inoculated 8 days before. […] Mice were treated continuously with nevirapine for seven days.

[10] = test system: Kasumi-1 cell line and primary blasts from two AML patients; experiment: Cell cycle in myeloid leukemia cells poorly sensitive to RA; format: cell-based, human; details: nevirapine treatment, data not shown

Cc1ccnc2c1NC(=O)c1cccnc1N2C1CC1 [nevirapine, 5,11-dihydro-11-cyclopropyl-4-methyl-6H-dipyrido-[3,2-b:2′,3′-e][1,4]diazepin-6-one]
RT activity, 112 bp-product (endogenous RT activity): abolished | development of early mouse embryos (early mouse embryos): early and effective developmental arrest | rate of proliferation [1]: decreases the rate of proliferation in all cell lines | cells with a G0/G1 DNA content (NIH/3T3): accumulated | cells with a G0/G1 DNA content (HT-29): accumulated | cells with a G0/G1 DNA content (MCF-7): accumulated | cells with a G0/G1 DNA content (U343 Mg): accumulated | cyclin D1 levels (cyclin D1 in NIH/3T3): substantial decrease | cyclin D1 levels (cyclin D1 in HT-29): substantial decrease | cyclin D1 levels (cyclin D1 in MCF-7): substantial decrease | cyclin D1 levels [2]: substantial decrease | myosin synthesis in isolated myoblasts [3]: already activated | morphology (NB4 cells [4]): myelomonocytic-like morphology was evident | CD11b mean fluorescence intensity (HL60 cells [5]): 16.6 AU | CD14 mean fluorescence intensity (HL60 cells [5]): 45.3 AU | CD15 mean fluorescence intensity (HL60 cells [5]): 1298.1 AU | CD11b mean fluorescence intensity (NB4 cells [6]): 10.1 AU | CD14 mean fluorescence intensity (NB4 cells [6]): 23.1 AU | CD15 mean fluorescence intensity (NB4 cells [6]): 196.3 AU | CD11b mean fluorescence intensity (AML#1): 5.9 AU | CD14 mean fluorescence intensity (AML#1): 8.8 AU | CD15 mean fluorescence intensity (AML#1): 15.6 AU | Viable cells N^0 × 10^5 (NB4 cells [7]): 2.6 ± 0.4 × 10^5 | NBT+ (%) (NB4 cells [8]): 37.2 ± 1.4% | NBT+ (%) (HL60 cells [9]): 37.8 ± 2.5% | NBT+ (%) (Kasumi-1 cells): 31.2 ± 1.1% | NBT+ (%) (AML #1): 19.5 ± 0.7% | NBT (%) (AML #2): 68.1 ± 1.4% | treated animals remaining healthy with no evidence of tumor growth (ascite tumor): ⅗ | accumulation of cells in the G1 phase of the cell cycle [10]: modest yet constant accumulation
